Legend:
Experiment in all cases: relative viability (nuclei count vs DMSO), 5 days (fraction); higher = more cells survive
Cediranib + Dasatinib = compound: COc1cc2c(Oc3ccc4[nH]c(C)cc4c3F)ncnc2cc1OCCCN1CCCC1 [Cediranib] + Cc1nc(Nc2ncc(C(=O)Nc3c(C)cccc3Cl)s2)cc(N2CCN(CCO)CC2)n1 [Dasatinib] (partner 0.075 µM)
Outline: (§1)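 Relative viability equals treated-well nuclei counts divided by vehicle-well nuclei counts. Counts came from 4× images of lung cancer cell lines grown in 1536-well plates for 5 days after pin-tool dosing on the day after seeding. Dosing used one drug alone or a fixed anchor-drug dose plus five library-drug doses (not always all listed) in √10 steps, and values are medians of duplicate plates.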

Decitabine + Linsitinib = compound: Nc1ncn([C@H]2C[C@H](O)[C@@H](CO)O2)c(=O)n1 [Decitabine] + C[C@]1(O)C[C@@H](c2nc(-c3ccc4ccc(-c5ccccc5)nc4c3)c3c(N)nccn32)C1 [Linsitinib] (partner 1 µM)
Outline: as §1

[1] = compound: O=C(C[C@H]1NCCC[C@@H]1O)Cn1cnc2cc(Br)c(Cl)cc2c1=O (racemic) [Halofuginone] + C[C@@H](Oc1cc(-c2cnn(C3CCNCC3)c2)cnc1N)c1c(Cl)ccc(F)c1Cl [Crizotinib] (partner 1 µM)
Outline: as §1

[2] = compound: O=C(C[C@H]1NCCC[C@@H]1O)Cn1cnc2cc(Br)c(Cl)cc2c1=O (racemic) [Halofuginone] + Nc1nc2[nH]cc(CCc3ccc(C(=O)N[C@@H](CCC(=O)O)C(=O)O)cc3)c2c(=O)[nH]1 [Pemetrexed] (partner 0.2 µM)
Outline: as §1

UMC-11 was tested, and the relative viability (Cediranib + Dasatinib; first compound 0.04 µM) was 0.5, the relative viability (Cediranib + Dasatinib; first compound 0.4 µM) was 0.426 and the relative viability (Cediranib + Dasatinib; first compound 4 µM) was 0.539. For the same cell line, the relative viability (Decitabine + Linsitinib; first compound 0.04 µM) was 0.976, the relative viability (Decitabine + Linsitinib; first compound 0.1265 µM) was 0.802 and the relative viability (Decitabine + Linsitinib; first compound 0.4 µM) was 0.448. For the same cell line, the relative viability (Decitabine + Linsitinib; first compound 1.265 µM) was 0.38, the relative viability (Decitabine + Linsitinib; first compound 4 µM) was 0.335 and the relative viability ([1]; first compound 0.001 µM) was 0.66. It also gave a relative viability ([1]; first compound 0.003162 µM) of 0.558, a relative viability ([1]; first compound 0.01 µM) of 0.575 and a relative viability ([1]; first compound 0.03162 µM) of 0.534. It also gave a relative viability ([1]; first compound 0.1 µM) of 0.215, a relative viability ([2]; first compound 0.001 µM) of 0.881 and a relative viability ([2]; first compound 0.003162 µM) of 0.834. The relative viability ([2]; first compound 0.01 µM) was 0.727, the relative viability ([2]; first compound 0.03162 µM) was 0.651 and the relative viability ([2]; first compound 0.1 µM) was 0.443.

Reference: the supplement of paper PMC10307832
